Tested on: CXC-chemokine receptor
Experiment: activity as a CXC-chemokine receptor ligand
Conditions: qualitative statement, no method or figures given

activity as a CXC-chemokine receptor ligand | Compound
particularly active | CC[C@@H](Nc1c(Nc2cccc(C(=O)N(C)C)c2O)c(=O)c1=O)c1ccc(C)o1 [Anhydrous Compound A]
substantially similar activity | CC[C@@H](Nc1c(Nc2cccc(C(=O)N(C)C)c2O)c(=O)c1=O)c1ccc(C)o1 [monohydrate form of Compound A]
